Experiment [1] can be described thus: insulin promoter down-regulators in MIN6 cells, imaging, high-content screening, mouse beta cells (AID 1628). It is filed as functional.
Experiment [2] in a line: cytotoxicity in MIN6 insulinoma cells, dose response, cytotoxicity control, cell-based, mouse insulinoma (AID 2122).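 Further: confirmatory high-throughput counterscreen run to flag cytotoxic compounds; mouse MIN-6 beta cells carrying an insulin promoter eGFP reporter.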 Type of experiment: functional.
Experiment [3] in a line: cytotoxicity in HEK-293T cells, dose response, cytotoxicity control for TCR NF-kB inhibitor project, luminescence, T-cell screen hits (AID 489026).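 Further: cells exposed to compound about 14 hours before the viability readout.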 It is filed as functional, cell-based.
For the next experiment, the system named is INS1. The experiment in a line: beta cell apoptosis inhibitors, cytokine rescue, dose response, luminescence, retest (AID 449756).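 Further: cell death triggered by IL-1 beta plus TNF-alpha plus IFN-gamma mixture; protective hits raise ATP signal compared with cytokine alone wells.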 It is filed as functional, cell-based. To be noted: Rattus norvegicus.
Experiment [4] can be described thus: Shn3 3'UTR reporter inhibitors, dose response, cell-based, Clone20 osteoblasts, firefly luciferase, cherry-picked (AID 624132).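 Further: firefly luciferase luminescence from reporter carrying the Shn3 3'UTR in osteoblasts.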 Type of experiment: functional.
Experiment [5] can be described thus: HepG2 cell cytotoxicity, dose response, cytotoxicity control for Shn3 inhibitor project, CellTiter-Glo, cherry-picked (AID 624134). It is filed as functional, cell-based.
Experiment [6] is described as follows: control 3'UTR Renilla luciferase suppression, dose response, counter-screen for Shn3 inhibitor project, cell-based, Clone20-Shn3RL, cherry-picked (AID 624133). Type of experiment: functional. Background: Counterscreens check selectivity or assay interference.
Experiment [7] has as its target COUP transcription factor 2 (Homo sapiens, UniProt P24468). Kind of experiment: Luminescence-based cell-based high throughput dose response assay to identify inhibitors of COUP-TFII (NR2F2). It is filed as functional.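 Further: HEK293 cells transiently cotransfected with COUP-TFII expression vector and reporter; luciferase reporter luminescence driven by COUP-TFII from the pX2-168 reporter plasmid.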
In the next experiment the target is Paired box protein Pax-8 (Homo sapiens, UniProt Q06710). The experiment in a line: inhibitors of PAX8-driven TPO luciferase reporter, dose response, RMG-I cells, cherry-pick (AID 687027).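 Further: luciferase reporter driven by Pax8 target thyroperoxidase promoter measured by SteadyGlo luminescence.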 Type of experiment: functional, cell-based.
The nature of experiment [8]: IOSE-T80 ovarian epithelial cell cytotoxicity, dose response, cytotoxicity control for PAX8 inhibitor project, plate reader, dry powder samples (AID 743045). Type of experiment: functional, cell-based.
Experiment [9] is described as follows: inhibitors of PGC1a acetylation in cells, dose response, cell-based, cherry-picked samples (AID 720514).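 Further: potency may reflect raised or lowered acetylation signal.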 It is filed as functional.
Experiment [10] is described as follows: NIH:OVCAR-3 ovarian cancer cell cytotoxicity, dose response, PAX8 inhibitor project, plate reader, dry powder samples (AID 743044). It is filed as functional, cell-based.
The nature of experiment [11]: IGROV1 ovarian cancer cell cytotoxicity, dose response, PAX8 inhibitor project, plate reader, dry powder samples (AID 743043). Type of experiment: functional, cell-based. To be noted: IGROV-1.
A short description of experiment [12]: non-specific cell cytotoxicity, dose response, cytotoxicity control for PAX8 inhibitor project, plate reader, dry powder samples (AID 743021). It is filed as functional, cell-based.
Experiment [13] deals with Potassium channel subfamily K member 9 (Homo sapiens, UniProt Q9NPC2). Kind of experiment: TASK3 (KCNK9) channel inhibitors, thallium flux, SAR follow-up, selectivity assay for TASK1 inhibitor project, cell-based, FluxOR thallium flux, concentration-response (AID 652211).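 Further: potency is for inhibitors of the channel.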 It is filed as functional.
For experiment [14], the target named is Potassium channel subfamily K member 3 (Homo sapiens, UniProt O14649). Kind of experiment: TASK1 (KCNK3) potassium channel inhibitors, SAR follow-up, CHO cells, FluxOR thallium flux (AID 652212). Type of experiment: functional.
Experiment [15] in a line: HEK293T cell cytotoxicity, dose response, cytotoxicity control, CellTiter-Glo luminescence, dry powder, set 6 (AID 651949). Type of experiment: functional, cell-based. The following applies: HEK293. On the technique in general: ATP-based viability assays read luminescence as a measure of living cells.
The nature of experiment [16]: Mycobacterium tuberculosis BioA enzyme inhibitor Measured in Biochemical System Using Plate Reader - 2163-02_Inhibitor_Dose_DryPowder_Activity.

Structures are written as SMILES. Active and inactive are the calls of the source. Some results are limits rather than exact numbers.

These results are taken from ChEMBL document CHEMBL1201862, “PubChem BioAssay data set” (2004).

Potassium channel subfamily K member 9, sequence (Q9NPC2 whole entry): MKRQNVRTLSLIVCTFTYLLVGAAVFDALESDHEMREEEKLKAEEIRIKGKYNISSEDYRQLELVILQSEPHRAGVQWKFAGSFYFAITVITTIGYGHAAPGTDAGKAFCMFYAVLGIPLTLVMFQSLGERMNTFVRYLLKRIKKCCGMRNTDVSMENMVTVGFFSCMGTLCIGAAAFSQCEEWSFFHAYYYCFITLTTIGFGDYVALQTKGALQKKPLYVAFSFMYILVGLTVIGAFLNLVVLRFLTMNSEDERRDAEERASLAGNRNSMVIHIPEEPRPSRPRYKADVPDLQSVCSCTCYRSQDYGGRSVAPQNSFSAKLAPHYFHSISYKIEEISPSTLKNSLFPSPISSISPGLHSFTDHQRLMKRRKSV
COUP transcription factor 2, sequence (P24468 whole entry): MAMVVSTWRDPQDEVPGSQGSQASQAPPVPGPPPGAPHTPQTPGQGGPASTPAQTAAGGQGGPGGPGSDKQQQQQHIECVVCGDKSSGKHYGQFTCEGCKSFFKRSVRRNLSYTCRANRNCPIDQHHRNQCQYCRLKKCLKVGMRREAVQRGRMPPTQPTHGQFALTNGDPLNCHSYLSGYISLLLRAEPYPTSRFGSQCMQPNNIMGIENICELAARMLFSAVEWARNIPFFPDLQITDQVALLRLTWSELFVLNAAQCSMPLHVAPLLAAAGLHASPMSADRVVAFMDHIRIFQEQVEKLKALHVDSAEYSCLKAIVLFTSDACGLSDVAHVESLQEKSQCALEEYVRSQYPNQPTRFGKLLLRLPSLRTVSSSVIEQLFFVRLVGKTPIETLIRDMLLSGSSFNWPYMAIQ
Potassium channel subfamily K member 3, sequence (O14649 whole entry): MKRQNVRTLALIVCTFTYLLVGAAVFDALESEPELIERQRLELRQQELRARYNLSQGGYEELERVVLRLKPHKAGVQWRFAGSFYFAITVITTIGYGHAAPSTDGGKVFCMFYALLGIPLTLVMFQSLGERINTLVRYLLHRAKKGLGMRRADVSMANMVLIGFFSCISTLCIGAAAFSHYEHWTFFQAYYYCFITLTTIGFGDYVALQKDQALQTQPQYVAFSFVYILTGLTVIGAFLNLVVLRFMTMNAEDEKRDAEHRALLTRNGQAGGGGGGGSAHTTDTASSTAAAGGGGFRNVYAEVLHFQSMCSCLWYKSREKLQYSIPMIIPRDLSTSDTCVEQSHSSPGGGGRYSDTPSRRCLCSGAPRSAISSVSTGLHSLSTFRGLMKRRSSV
Paired box protein Pax-8, sequence (Q06710 whole entry): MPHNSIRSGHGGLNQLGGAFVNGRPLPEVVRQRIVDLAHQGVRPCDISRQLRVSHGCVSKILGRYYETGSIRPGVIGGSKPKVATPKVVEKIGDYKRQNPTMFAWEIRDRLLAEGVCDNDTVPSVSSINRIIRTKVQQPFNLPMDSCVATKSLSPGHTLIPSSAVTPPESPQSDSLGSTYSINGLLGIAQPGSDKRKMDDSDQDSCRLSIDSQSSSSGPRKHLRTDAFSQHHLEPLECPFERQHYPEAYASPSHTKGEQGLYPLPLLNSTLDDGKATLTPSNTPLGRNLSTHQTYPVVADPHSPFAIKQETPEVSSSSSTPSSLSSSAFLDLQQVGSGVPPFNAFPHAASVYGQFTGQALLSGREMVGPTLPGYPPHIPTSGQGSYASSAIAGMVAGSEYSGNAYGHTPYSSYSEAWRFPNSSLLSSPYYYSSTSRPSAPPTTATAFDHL

As usually defined, the IC50 is the concentration at which inhibition is half-maximal. Usually AC50 stands for the concentration at which the activity in the assay is half-maximal. On to `CCC(O)C1CCN(C(=O)c2cc(COc3ccc4ncccc4c3)on2)CC1` (stereo not drawn), for which the IC50 in [1] was 571 nM (active); in [2], 294 nM (active); in experiment [3], > 80 µM (inactive); in experiment [7], 4.46 µM (active). Moreover, the AC50 with INS1 was 3.38 µM (active); in [4], 505 nM (active); in experiment [5], 1.75 µM (active); in experiment [6], 10.9 µM (active).
As to `O=C(Nc1cccc(F)c1)N1C[C@@H]2N[C@H](C1)[C@@H]2c1ccc(-c2ccc(F)cc2)cc1`, the AC50 at Paired box protein Pax-8 is 19.5 µM (active); in experiment [8], 34.3 µM (active); in experiment [9], 18.5 µM (active); in experiment [10], 17.7 µM (active); in experiment [11], 22.4 µM (active); in [12] it was 65.7 µM (active).
Take `COc1c(F)cccc1C(=O)Nc1cccc(NC(=O)c2cccc(C)c2)c1`: the IC50 is 370 nM (active) in experiment [13] and 13 nM (active) in [14].
Regarding `c1ccc(CNCCSc2nnc(-c3ccccc3)o2)cc1`, the AC50 in [15] is > 52 µM (inactive).
Consider `Cc1cccc(/C=C(\CCC(=O)O)c2nc3ccccc3s2)c1`, for which the AC50 in experiment [16] is 14.5 µM (active).
